In article PMC6152084, “Synthesis of New Hydrazone Derivatives for MAO Enzymes Inhibitory Activity” (Molecules : A Journal of Synthetic Chemistry and Natural …, 2017):

Key:
hMAO-A = target: T1, hMAO-A (Homo sapiens, UniProt P21397); test: MAO-A inhibition assay (in vitro fluorometric Amplex Red method); type: biochemical
T1 construct: purchased Sigma-Aldrich (Steinheim, Germany)
T1 sequence (P21397 1-527): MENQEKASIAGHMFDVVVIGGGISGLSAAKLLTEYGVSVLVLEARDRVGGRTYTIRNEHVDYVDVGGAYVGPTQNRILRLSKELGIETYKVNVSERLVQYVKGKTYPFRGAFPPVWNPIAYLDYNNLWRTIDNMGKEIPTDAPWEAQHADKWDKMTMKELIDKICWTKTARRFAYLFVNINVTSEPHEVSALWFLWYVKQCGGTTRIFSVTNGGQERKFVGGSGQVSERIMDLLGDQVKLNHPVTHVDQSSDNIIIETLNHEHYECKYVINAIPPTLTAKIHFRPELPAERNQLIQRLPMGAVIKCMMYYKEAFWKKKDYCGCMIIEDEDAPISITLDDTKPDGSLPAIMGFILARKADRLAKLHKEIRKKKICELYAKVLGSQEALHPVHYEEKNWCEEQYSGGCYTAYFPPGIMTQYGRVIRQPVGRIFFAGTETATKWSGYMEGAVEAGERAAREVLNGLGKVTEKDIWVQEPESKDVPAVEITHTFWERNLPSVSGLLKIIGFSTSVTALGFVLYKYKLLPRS

hMAO-B = target: T2, hMAO-B (Homo sapiens, UniProt P27338); test: MAO-B inhibition assay (in vitro fluorometric Amplex Red method); type: biochemical
T2 construct: purchased Sigma-Aldrich (Steinheim, Germany)
T2 sequence (P27338 1-520): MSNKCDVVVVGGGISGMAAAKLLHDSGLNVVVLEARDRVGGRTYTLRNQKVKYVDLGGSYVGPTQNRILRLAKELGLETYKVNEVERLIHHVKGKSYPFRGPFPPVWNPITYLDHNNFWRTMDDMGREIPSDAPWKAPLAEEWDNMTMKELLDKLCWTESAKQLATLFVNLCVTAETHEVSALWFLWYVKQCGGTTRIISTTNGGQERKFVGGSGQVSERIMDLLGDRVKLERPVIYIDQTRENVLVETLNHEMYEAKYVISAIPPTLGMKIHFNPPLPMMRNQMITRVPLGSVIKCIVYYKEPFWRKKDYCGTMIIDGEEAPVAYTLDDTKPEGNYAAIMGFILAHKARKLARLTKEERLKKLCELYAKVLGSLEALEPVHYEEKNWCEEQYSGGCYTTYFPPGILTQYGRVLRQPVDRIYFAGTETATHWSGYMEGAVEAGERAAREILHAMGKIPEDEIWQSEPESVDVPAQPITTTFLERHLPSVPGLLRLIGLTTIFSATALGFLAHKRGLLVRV

Row | inhibition at 1000 µM (hMAO-A; 10^−3 M) | inhibition at 100 µM (hMAO-A; 10^−4 M) | inhibition at 1000 µM (hMAO-B; 10^−3 M) | inhibition at 100 µM (hMAO-B; 10^−4 M) | melting point | SMILES | other results
1 | 54.5 ± 1% | 20.4 ± 0.469% | 21.7 ± 0.52% | 17.1 ± 0.412% | 121.3 to 124.9 °C | Fc1ccc(Oc2ccc(C=NNc3ccccc3)cc2)cc1 [Compound 2g, 1-(4-(4-Fluorophenoxy)benzylidene)-2-phenylhydrazine] | 
2 | 28.6 ± 0.57% | 21 ± 0.548% | 30.2 ± 0.574% | 24.1 ± 0.355% | 132.3 to 133.9 °C | Fc1ccc(Sc2ccc(C=NNc3ccccc3)cc2)cc1 [Compound 2h, 1-(4-((4-Fluorophenyl)thio)benzylidene)-2-phenylhydrazine] | 
3 | 70.9 ± 1.06% | 43.2 ± 0.861% | 38.5 ± 0.732% | 34.7 ± 0.556% | 149.4 to 160.9 °C | C(=NNc1ccccc1)c1ccc(N2CCN(c3ccccc3)CC2)cc1 [Compound 2c, 1-(4-(4-Phenylpiperazine-1-yl)benzylidene)-2-phenylhydrazine] | 
4 | 40.9 ± 0.9% | 18.3 ± 0.618% | 38.2 ± 1.09% | 30.7 ± 0.707% | 201.9 to 208.9 °C | C(=NNc1ccccc1)c1ccc(-n2ccnc2)cc1 [Compound 2i, 1-(4-(1-Imidazolyl)benzylidene)-2-phenylhydrazine] | 
5 | 38.6 ± 0.743% | 33 ± 0.66% | 27.5 ± 0.633% | 22.1 ± 0.419% | 127.4 to 132.2 °C | C(=NNc1ccccc1)c1ccc(-n2cncn2)cc1 [Compound 2j, 1-(4-(1H-1,2,4-triazole-1-yl)benzylidene)-2-phenylhydrazine] | 
6 | 29.2 ± 0.672% | 21.5 ± 0.468% | 36.3 ± 0.774% | 19 ± 0.825% | 164.4 to 165.7 °C | Clc1ccc(Sc2ccc(C=NNc3ccccc3)cc2)cc1 [Compound 2k, 1-(4-((4-Chlorophenyl)thio)benzylidene)-2-phenylhydrazine] | 
7 | 32.5 ± 0.844% | 25 ± 0.425% | 26.5 ± 0.478% | 19.4 ± 0.327% | 170.9 to 174.9 °C | COc1ccc(Oc2ccc(C=NNc3ccccc3)cc2)cc1 [Compound 2e, 1-(4-(4-Methoxyphenoxy)benzylidene)-2-phenylhydrazine] | 

More lines, now with the values behind:

Row | SMILES | inhibition at 1000 µM (hMAO-A; 10^−3 M) | inhibition at 100 µM (hMAO-A; 10^−4 M) | inhibition at 1000 µM (hMAO-B; 10^−3 M) | inhibition at 100 µM (hMAO-B; 10^−4 M) | melting point | other results
8 | COc1ccc(N2CCN(c3ccc(C=NNc4ccccc4)cc3)CC2)cc1 [Compound 2d, 1-(4-(4-(4-Methoxyphenyl)piperazine-1-yl)benzylidene)-2-phenylhydrazine] | 68.6 ± 1.5% | 40.2 ± 0.97% | 39.2 ± 0.863% | 30.6 ± 0.613% | 141.2 to 150.4 °C | 
9 | CN(C)CCCN1CCN(c2ccc(C=NNc3ccccc3)cc2)CC1 [Compound 2n] |  |  |  |  |  | MAO-A Inhibition % (hMAO-A; 10^−3 M): 64.435 ± 1.104%; MAO-A Inhibition % (hMAO-A; 10^−4 M): 36.154 ± 0.817%; MAO-B Inhibition % (hMAO-B; 10^−3 M): 40.629 ± 0.933%; MAO-B Inhibition % (hMAO-B; 10^−4 M): 29.068 ± 0.734%
10 | COc1ccc(Sc2ccc(C=NNc3ccccc3)cc2)cc1 [Compound 2f, 1-(4-((4-Methoxyphenyl)thio)benzylidene)-2-phenylhydrazine] | 30.5 ± 0.817% | 26.7 ± 0.748% | 33.3 ± 0.833% | 21.9 ± 0.416% | 178.1 to 184.3 °C | 
11 | O=C(NCCN1CCOCC1)c1ccc(Cl)cc1 [Moclobemide, reference compound] |  | 82.1 ± 2.69% |  |  |  | inhibition at 10 µM (hMAO-A; 10^−5 M): 60.5 ± 2.56%; inhibition at 1 µM (hMAO-A; 10^−6 M): 36.2 ± 1.98%; inhibition at 0.1 µM (hMAO-A; 10^−7 M): 22.1 ± 1.34%; inhibition at 0.01 µM (hMAO-A; 10^−8 M): 18.2 ± 0.812%; inhibition at 0.001 µM (hMAO-A; 10^−9 M): 14.1 ± 0.725%
12 | CN(C)CCN1CCN(c2ccc(C=NNc3ccccc3)cc2)CC1 [Compound 2m] |  |  |  |  |  | MAO-A Inhibition % (hMAO-A; 10^−3 M): 68.276 ± 1.048%; MAO-A Inhibition % (hMAO-A; 10^−4 M): 39.471 ± 0.719%; MAO-B Inhibition % (hMAO-B; 10^−3 M): 41.072 ± 0.732%; MAO-B Inhibition % (hMAO-B; 10^−4 M): 27.607 ± 0.961%
13 | C(=NNc1ccccc1)c1ccc(N2CCC(Cc3ccccc3)CC2)cc1 [Compound 2l, 1-(4-(Benzylpiperidine)benzylidene)-2-phenylhydrazine] |  |  |  |  |  | MAO-A Inhibition % (hMAO-A; 10^−3 M): 74.251 ± 1.614%; MAO-A Inhibition % (hMAO-A; 10^−4 M): 44.828 ± 0.917%; MAO-B Inhibition % (hMAO-B; 10^−3 M): 45.194 ± 0.692%; MAO-B Inhibition % (hMAO-B; 10^−4 M): 28.560 ± 0.629%
